Target: T1, FtsZAT (Agrobacterium fabrum, UniProt A9CIB1)
T1 sequence (A9CIB1 1-583): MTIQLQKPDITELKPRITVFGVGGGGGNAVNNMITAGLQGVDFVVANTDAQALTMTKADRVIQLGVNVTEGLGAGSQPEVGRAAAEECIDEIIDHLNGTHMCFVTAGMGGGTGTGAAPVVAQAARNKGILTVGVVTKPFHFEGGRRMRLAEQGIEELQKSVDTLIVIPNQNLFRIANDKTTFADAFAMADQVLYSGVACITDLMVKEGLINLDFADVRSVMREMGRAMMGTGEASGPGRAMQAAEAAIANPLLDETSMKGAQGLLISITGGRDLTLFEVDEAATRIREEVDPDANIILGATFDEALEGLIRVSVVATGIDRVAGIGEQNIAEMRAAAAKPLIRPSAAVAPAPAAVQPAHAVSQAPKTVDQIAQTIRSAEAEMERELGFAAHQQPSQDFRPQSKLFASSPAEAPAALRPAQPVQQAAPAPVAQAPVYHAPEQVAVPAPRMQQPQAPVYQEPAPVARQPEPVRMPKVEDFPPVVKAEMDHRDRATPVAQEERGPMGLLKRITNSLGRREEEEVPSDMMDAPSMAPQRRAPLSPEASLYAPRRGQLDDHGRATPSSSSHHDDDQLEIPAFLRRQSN
Experiment: GTPase assay, inorganic phosphate release
Assay type: biochemical
Details: 2 mM GTP, 8 µM FtsZAT, 2.5 mM MgCl2, 50 mM HEPES-KOH pH 7.2, 50 mM KCl, 0.1 mM EDTA

SMILES: Nc1nc2c(ncn2[C@@H]2O[C@H](COP(=O)(O)OP(=O)(O)OP(=O)(O)O)[C@@H](O)[C@H]2O)c(=O)[nH]1 [GTP]
- GTPase assay, inorganic phosphate release (colorimetric): it rapidly releases inorganic phosphate suggesting that GTP is hydrolyzed

— article PMC6482847 (Molecular microbiology, 2019)
